In data set [1] the target is T1, C-X-C chemokine receptor type 2 (Homo sapiens, UniProt P25025).
T1 sequence (P25025 whole entry): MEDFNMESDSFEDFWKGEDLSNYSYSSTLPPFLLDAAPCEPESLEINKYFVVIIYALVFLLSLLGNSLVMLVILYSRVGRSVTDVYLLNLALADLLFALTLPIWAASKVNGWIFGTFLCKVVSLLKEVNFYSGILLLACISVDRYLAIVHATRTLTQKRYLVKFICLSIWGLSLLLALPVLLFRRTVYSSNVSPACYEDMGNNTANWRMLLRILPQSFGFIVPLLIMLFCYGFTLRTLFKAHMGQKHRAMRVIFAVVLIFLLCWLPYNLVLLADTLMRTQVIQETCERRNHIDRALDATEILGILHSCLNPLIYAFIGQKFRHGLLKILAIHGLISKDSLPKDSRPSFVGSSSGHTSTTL
Description: Displacement of human [125I]IL-8 from human CXCR2

A short description of data set [2]: AUC in rat at 10 mg/kg, po. In kind it is ADME, organism-based. Details: dose 10 mg/kg, route oral. Conditions: plasma.
For data set [3], the target named is T2, C-X-C chemokine receptor type 1 (Homo sapiens, UniProt P25024).
T2 sequence (P25024 whole entry): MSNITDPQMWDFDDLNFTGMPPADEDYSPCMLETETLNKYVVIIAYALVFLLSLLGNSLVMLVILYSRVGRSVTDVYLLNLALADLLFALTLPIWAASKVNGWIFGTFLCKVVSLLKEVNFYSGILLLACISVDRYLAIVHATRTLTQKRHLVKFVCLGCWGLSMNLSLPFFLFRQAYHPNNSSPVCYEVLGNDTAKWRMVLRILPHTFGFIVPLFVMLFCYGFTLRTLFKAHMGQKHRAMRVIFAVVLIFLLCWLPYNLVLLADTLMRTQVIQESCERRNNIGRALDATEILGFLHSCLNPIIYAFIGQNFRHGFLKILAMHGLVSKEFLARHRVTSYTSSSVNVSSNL
Description: Displacement of human [125I]IL-8 from human CXCR1

Molecules are shown by their SMILES.

Usually Ki stands for a measure of affinity in units of concentration, obtained from inhibition or displacement. Low values mean tighter binding, high ones weaker binding. One may read the AUC as the area under the concentration-time curve, a measure of exposure. Read a high AUC as high exposure. As for `CC[C@@H](Nc1c(Nc2ccc(Br)c(C(=O)N(C)C)c2O)c(=O)c1=O)c1ccccc1`, the affinity in data set [1] corresponds to a Ki of 4 nM. The molecule further yielded an AUC in data set [2] of 0.06 µM·h.
Take `CC[C@@H](Nc1c(Nc2cc(Cl)cc(C(=O)N(C)C)c2O)c(=O)c1=O)c1cccs1`: the Ki in data set [3] stood at 1220 nM; in data set [1] it was 50 nM. Moreover, in data set [2], the AUC came to 2.2 µM·h.
In data set [1], `CC[C@@H](Nc1c(Nc2ccccc2O)c(=O)c1=O)c1ccc(C)o1` showed a Ki of 22 nM.
`CC[C@@H](Nc1c(Nc2cc(C#N)cc(C(=O)N(C)C)c2O)c(=O)c1=O)c1cccs1`: the figures for the Ki in data set [3] and in data set [1] were 54 nM and 5 nM, respectively.
`CC[C@@H](Nc1c(Nc2ccc(-c3ccccc3)c(C(=O)N(C)C)c2O)c(=O)c1=O)c1ccccc1` gave a Ki in data set [1] of 17 nM.
Take `CC[C@@H](Nc1c(Nc2cccc(C(=O)N(C)C)c2O)c(=O)c1=O)c1cccs1`: the figures for the Ki in data set [3] and in data set [1] were 210 nM and 5 nM, respectively. The AUC in data set [2] came out at 2.5 µM·h.
`CC[C@H](c1ccccc1)N(C)c1c(Nc2cccc(C(=O)N(C)C)c2O)c(=O)c1=O`: the Ki in data set [1] is > 270 nM.
As to `CC[C@@H](Nc1c(Nc2c(C)ccc(C(=O)N(C)C)c2O)c(=O)c1=O)c1ccccc1`, the Ki came to 381 nM in data set [3] and 4.5 nM in data set [1]. Besides, the AUC in data set [2] is 2.3 µM·h.
With `CC[C@@H](Nc1c(Nc2cc(C)cc(C(=O)N(C)C)c2O)c(=O)c1=O)c1cccs1`, the results for the Ki in data set [3] and in data set [1] were 2800 nM and 76 nM, respectively.
`CC[C@@H](Nc1c(Nc2cccc(C(=O)N3CC(O)C3)c2O)c(=O)c1=O)c1ccccc1`: the Ki in data set [1] worked out at 20 nM. The AUC in data set [2] worked out at 0.5 µM·h.
Regarding `CC[C@@H](Nc1c(Nc2cccc(C(=O)N3CCN(C)CC3)c2O)c(=O)c1=O)c1ccccc1`, the results for the Ki in data set [3] and in data set [1] were 41 nM and 12 nM, respectively.
In the case of `CC[C@@H](Nc1c(N2CCOc3c(C(=O)N(C)C)cccc32)c(=O)c1=O)c1ccccc1`, in data set [1], the inhibition constant (Ki) was > 270 nM.
For the molecule `CC[C@@H](Nc1c(Nc2cc(Br)cc(C(=O)N(C)C)c2O)c(=O)c1=O)c1cccs1`, the values for the Ki in data set [3] and in data set [1] were 2070 nM and 61 nM, respectively. Also, in data set [2], the AUC amounted to 1.4 µM·h.
Consider `CC[C@@H](Nc1c(Nc2cccc(C(=O)N3CCCC3C(=O)O)c2O)c(=O)c1=O)c1ccccc1` (stereo partly specified), for which the Ki stood at 30 nM in data set [3] and 5 nM in data set [1].
Consider `CC[C@@H](Nc1c(Nc2cc(-c3ccccc3)cc(C(=O)N(C)C)c2O)c(=O)c1=O)c1ccccc1`, for which, in data set [1], the Ki was > 2000 nM.
In data set [1], `CC[C@@H](Nc1c(Nc2cccc(C(=O)NC(C)C)c2O)c(=O)c1=O)c1ccccc1` came in with a Ki of 219 nM.
As to `CC[C@@H](Nc1c(Nc2cccc(C(=O)N(C)C)c2O)c(=O)c1=O)c1ccccc1`, in data set [1], the Ki came to 4.4 nM. In data set [2], this molecule gave an AUC of 17.4 µM·h.
In the case of `CC[C@@H](Nc1c(Nc2cccc(C(=O)N3CCN(C(C)=O)CC3)c2O)c(=O)c1=O)c1ccccc1`, the Ki in data set [1] stood at 27 nM.
Consider `CC[C@@H](Nc1c(Nc2cccc(C(=O)N(C)C(C)C)c2O)c(=O)c1=O)c1ccccc1`, for which the Ki is 123 nM in data set [3] and 11 nM in data set [1]. In data set [2], this molecule yielded an AUC of 1.4 µM·h.
For the molecule `CC[C@@H](Nc1c(Nc2cccc(C(=O)NC)c2O)c(=O)c1=O)c1ccccc1`, in data set [1], the Ki was found to be 28 nM. The AUC in data set [2] came out at 0.4 µM·h.
In the case of `CC[C@@H](Nc1c(Nc2cccc(C(=O)N3CCOCC3)c2O)c(=O)c1=O)c1ccccc1`, the Ki in data set [1] was 10 nM.
On to `CC[C@@H](Nc1c(Nc2cccc(C(=O)N3CC[C@H](CO)C3)c2O)c(=O)c1=O)c1ccccc1`, for which affinity in data set [1] was put at a Ki of 20 nM. Besides, the AUC in data set [2] was determined as 0.44 µM·h.
`CC[C@@H](Nc1c(Nc2cccc(C(=O)O)c2O)c(=O)c1=O)c1ccc(C)o1`: in data set [1], the Ki was determined as 12 nM.
`CC[C@@H](Nc1c(Nc2ccc(-c3ccccn3)c(C(=O)N(C)C)c2O)c(=O)c1=O)c1ccccc1`: the figures for the Ki in data set [3] and in data set [1] were > 1000 nM and 15 nM, respectively.
In turn, `CC[C@@H](Nc1c(Nc2cccc(C(N)=O)c2O)c(=O)c1=O)c1ccccc1` yielded a Ki in data set [1] of 25 nM. In data set [2], this molecule showed an AUC of 2.2 µM·h.
With `CC[C@@H](Nc1c(Nc2cccc(C(=O)N(C)C)c2OC)c(=O)c1=O)c1ccccc1`, the Ki in data set [1] is > 270 nM.
With `CC[C@@H](Nc1c(Nc2cccc(C(=O)N3CCN(C(=O)c4ccccn4)CC3)c2O)c(=O)c1=O)c1ccccc1`, in data set [1], the affinity corresponds to a Ki of 20 nM.
In data set [1], `CC[C@@H](Nc1c(Nc2cccc(C(=O)NC3CC3)c2O)c(=O)c1=O)c1ccccc1` came in with a Ki of 34 nM.
`CC[C@@H](Nc1c(Nc2cc(C)cc(C(=O)N(C)C)c2O)c(=O)c1=O)c1ccccc1`: the Ki in data set [1] was found to be 203 nM. Compared with the last molecule, the Ki is about 6-fold higher.
For `CC[C@H](c1ccccc1)N(C)c1c(N(C)c2cccc(C(=O)N(C)C)c2O)c(=O)c1=O`, the Ki in data set [1] was > 270 nM.
As to `CC[C@@H](Nc1c(Nc2cc(C#N)cc(C(=O)N(C)C)c2O)c(=O)c1=O)c1ccccc1`, in data set [1], the affinity, expressed as Ki, was 3 nM.
For `CC[C@@H](Nc1c(Nc2cccc(C(=O)N3CC[C@H](O)C3)c2O)c(=O)c1=O)c1ccccc1`, the Ki in data set [3] was determined as 21 nM; in data set [1], 18 nM.
Turning to `CC[C@@H](Nc1c(Nc2cccc(C(=O)N3CCCC3)c2O)c(=O)c1=O)c1ccccc1`, the inhibitory constant (Ki) in data set [1] amounted to 9 nM. The same molecule returned an AUC in data set [2] of 1 µM·h.

(Values after ChEMBL document CHEMBL1153641, “Diaminocyclobutenediones as potent and orally bioavailable CXCR2 receptor antagonists: SAR in the phenolic amide region” (Bioorg Med Chem Lett, 2009).)
